Holding throughout (format): cell-based
The test system of assay [1] is Thrombin-stimulated Ca2+ response in HT-29 cells. The assay is described as follows: Ca FLIPR TETRA assay, ANTAGONIST mode, activator 1 U/mL Thrombin. To be noted: Homo sapiens; HT-29 cells, activator 1 U/mL Thrombin. As for the experimental part: (§1) Protocol for Testing PAR2 Compounds in ANTAGONIST Mode Using the Ca FLIPR^TETRA Assay (384 Well).
(§2) 23000 HT-29 cells (ATCC# HTB-38) were plated in 384-well black, transparent-flat bottom plates and incubated in 25 uL of 1% FBS/McCoy's media ON at 37° C. under an atmosphere of 5% CO2. The following day, 25 uL FLIPR calcium 5 Molecular Devices assay reagent (Cat: R-8186) was added. Plates were incubated at 37° C. and r. t. for 45 min and 15 min, respectively. Compounds dilutions were prepared in 100% DMSO using a Biomek FX and diluted 20-fold in HBSS and then 5.5 uL was added directly to the cells by the FLIPR^TETRA (10× dilution) using FLIPR Tetra Pipette tips, black, non-sterile, 384 Molecular Devices (Cat: 9000-0764).
(§3) A first read was performed to determine whether the test compounds on their own can activate Ca^2+ responses. The cells were incubated with the compounds for 30 min at r. t. and then read in ANTAGONIST mode in the same plate by stimulating with 6.2 uL of a fixed concentration of the activator: final concentrations 8 μM SLIGKV, 1 U/mL Thrombin, 3.1 U/mL trypsin, or 0.6 μM UTP.

Assay [2] concerns the target T1, PAR2 (HT-29 cells) (Homo sapiens, UniProt P55085).
T1 construct: host or cells: HT-29
T1 sequence (P55085 26-397): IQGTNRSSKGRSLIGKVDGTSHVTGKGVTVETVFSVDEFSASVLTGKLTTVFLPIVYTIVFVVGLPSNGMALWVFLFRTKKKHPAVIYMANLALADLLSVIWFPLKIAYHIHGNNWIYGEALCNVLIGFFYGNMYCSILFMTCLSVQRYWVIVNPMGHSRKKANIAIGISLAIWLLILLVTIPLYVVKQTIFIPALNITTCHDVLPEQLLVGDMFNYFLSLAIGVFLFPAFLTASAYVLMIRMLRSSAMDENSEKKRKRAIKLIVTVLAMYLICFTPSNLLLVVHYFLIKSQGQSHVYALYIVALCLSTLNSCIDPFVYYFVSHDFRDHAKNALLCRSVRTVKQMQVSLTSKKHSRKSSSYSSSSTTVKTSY
The assay is described as follows: Ca FLIPR TETRA assay, ANTAGONIST mode, activator 8 μM SLIGKV. To be noted: HT-29 cells, activator 8 μM SLIGKV; maximal antagonist concentration per Method (A: 0.1, 1 or 2 μM; B: 50 μM). The method, then:
as §1, §2, §3

For assay [3], the system named is UTP-stimulated Ca2+ response in HT-29 cells. The assay is described as follows: Ca FLIPR TETRA assay, ANTAGONIST mode, activator 0.6 μM UTP. The note with it: Homo sapiens; HT-29 cells, activator 0.6 μM UTP. As for the experimental part: as §1, §2, §3
The target of assay [4] is T1, PAR2 (HT-29 cells). Put plainly: Ca FLIPR TETRA assay, ANTAGONIST mode, activator 3.1 U/mL trypsin. To be noted: HT-29 cells, activator 3.1 U/mL trypsin; maximal antagonist concentration per Method (A: 0.1, 1 or 2 μM; B: 50 μM). The method, then:
as §1, §2, §3

For 14 compounds, IC50 results are on record in patent US20180057505A1, “BICYCLIC HETEROARYL COMPOUNDS USEFUL AS INHIBITORS OF THE PAR-2 SIGNALING PATHWAY” (VERTEX PHARMACEUTICALS INCORPORATED, priority 2015, published 2018).

By IC50 is commonly meant the concentration needed to halve the response being measured.

Consider `CCC(C)(O)C(=O)N1CCN(C(=O)c2cc3nc(-c4ccc(F)cc4)cc(C4(C)CC4)c3o2)C(C)(C)C1` (centres unmarked) [Example I-35], for which the half-inhibitory concentration (IC50) in assay [1] turned out to be 14000 nM; at PAR2 (HT-29 cells) [2], 34 nM; in assay [3], 11000 nM; on PAR2 (HT-29 cells) [4], 49 nM.

For the compound `CC(C)C[C@@H](O)C(=O)N1CCN(C(=O)c2cc3nc(-c4ccc(F)cc4)cc(C4(C)CC4)c3o2)C(C)(C)C1` [Example I-36], the IC50 in assay [1] is 31000 nM; on PAR2 (HT-29 cells) [2], 0.97 nM; in assay [3] it was over 26000 nM; at PAR2 (HT-29 cells) [4], 1.5 nM.

On to `COCCOCC(=O)N1CCN(C(=O)c2cc3nc(-c4ccc(F)cc4)cc(C4(C)CC4)c3o2)C(C)(C)C1` [Example I-37], for which the IC50 in assay [1] is 21000 nM; at PAR2 (HT-29 cells) [2] it was 57 nM; in assay [3], 17000 nM; at PAR2 (HT-29 cells) [4], 67 nM.

As for `CC(C)(C)CC(O)C(=O)N1CCN(C(=O)c2cc3nc(-c4ccc(F)cc4)cc(C4(C)CC4)c3o2)C(C)(C)C1` (centres unmarked) [Example I-38], the IC50 in assay [1] was over 50000 nM; at PAR2 (HT-29 cells) [2], 3.5 nM; in assay [3], 39000 nM; on PAR2 (HT-29 cells) [4], 3.1 nM.

Regarding `CC1(c2cc(-c3ccc(F)cc3)nc3cc(C(=O)N4CCN(C(=O)C(C)(O)C(F)(F)F)CC4(C)C)oc23)CC1` (centres unmarked) [Example I-39], the IC50 in assay [1] is 21000 nM; at PAR2 (HT-29 cells) [2], 14 nM; in assay [3], 23000 nM; at PAR2 (HT-29 cells) [4] it was 20 nM.

As to `CC1(c2cc(-c3ccc(F)cc3)nc3cc(C(=O)N4CCN(C(=O)[C@H](O)C5CCCCC5)CC4(C)C)oc23)CC1` [Example I-40], the concentration for half-maximal inhibition (IC50) in assay [1] worked out at 37000 nM; on PAR2 (HT-29 cells) [2], 5 nM; in assay [3], 30000 nM; on PAR2 (HT-29 cells) [4], 7.3 nM.

For `CC1(c2cc(-c3ccc(F)cc3)nc3cc(C(=O)N4CCN(C(=O)[C@H](O)Cc5ccccc5)CC4(C)C)oc23)CC1` [Example I-41], the IC50 in assay [1] is over 50000 nM; on PAR2 (HT-29 cells) [2] it was 6.5 nM; in assay [3], over 50000 nM; on PAR2 (HT-29 cells) [4] it was 8.5 nM.

Turning to `CC1(c2cc(-c3ccc(F)cc3)nc3cc(C(=O)N4CCN(C(=O)C5CCCCC5)CC4(C)C)oc23)CC1` [Example I-42], the IC50 in assay [1] was over 50000 nM; at PAR2 (HT-29 cells) [2], 1.2 nM; in assay [3], over 50000 nM; at PAR2 (HT-29 cells) [4], 1.2 nM.

Regarding `CC1(C(=O)N2CCN(C(=O)c3cc4nc(-c5ccc(F)cc5)cc(C5(C)CC5)c4o3)C(C)(C)C2)CCCCC1` [Example I-43], the IC50 in assay [1] was over 50000 nM; on PAR2 (HT-29 cells) [2], 6.9 nM; in assay [3], over 50000 nM; at PAR2 (HT-29 cells) [4] it was 8.2 nM.

Consider `CCC(C)C(=O)N1CCN(C(=O)c2cc3nc(-c4ccc(F)cc4)cc(C4(C)CC4)c3o2)C(C)(C)C1` (centres unmarked) [Example I-44], for which the IC50 in assay [1] was over 40000 nM; on PAR2 (HT-29 cells) [2] it was 2.9 nM; in assay [3], 36000 nM; at PAR2 (HT-29 cells) [4] it was 3.2 nM.

Consider `CC1(C(=O)N2CCN(C(=O)c3cc4nc(-c5ccc(F)cc5)cc(C5(C)CC5)c4o3)C(C)(C)C2)CC1` [Example I-45], for which the IC50 in assay [1] worked out at 20000 nM; on PAR2 (HT-29 cells) [2], 4 nM; in assay [3] it was 4700 nM; on PAR2 (HT-29 cells) [4] it was 4.1 nM.

For the compound `CC(C)C(=O)N1CCN(C(=O)c2cc3nc(-c4ccc(F)cc4)cc(C4(C)CC4)c3o2)C(C)(C)C1` [Example I-46], the IC50 in assay [1] came out at 4100 nM; at PAR2 (HT-29 cells) [2] it was 7.9 nM; in assay [3], 5300 nM; on PAR2 (HT-29 cells) [4], 7 nM.

Regarding `CC[C@H](C(=O)N1CCN(C(=O)c2cc3nc(-c4ccc(F)cc4)cc(C4(C)CC4)c3o2)C(C)(C)C1)c1ccccc1` [Example I-47], the IC50 in assay [1] was over 50000 nM; on PAR2 (HT-29 cells) [2], 29 nM; in assay [3], over 50000 nM; at PAR2 (HT-29 cells) [4] it was 78 nM.

In the case of `CC1(c2cc(-c3ccc(F)cc3)nc3cc(C(=O)N4CCN(C(=O)C5CCC5)CC4(C)C)oc23)CC1` [Example I-48], the IC50 in assay [1] stood at 16000 nM; on PAR2 (HT-29 cells) [2] it was 5.1 nM; in assay [3], 16000 nM; at PAR2 (HT-29 cells) [4] it was 5.9 nM.
